Laboratory results reported in US20200317642A1, “AMINE-SUBSTITUTED HETEROCYCLIC COMPOUNDS AS EHMT2 INHIBITORS AND DERIVATIVES THEREOF” (Epizyme, Inc., priority 2017, published 2020).

target: T1, EHMT1 (Homo sapiens, UniProt Q9H9B1); experiment: EHMT1 PEP enzyme assay; type: biochemical; conditions: Table 3; read-out: EHMT1 PEP (IC50 μM)
T1 sequence (Q9H9B1 1-1298): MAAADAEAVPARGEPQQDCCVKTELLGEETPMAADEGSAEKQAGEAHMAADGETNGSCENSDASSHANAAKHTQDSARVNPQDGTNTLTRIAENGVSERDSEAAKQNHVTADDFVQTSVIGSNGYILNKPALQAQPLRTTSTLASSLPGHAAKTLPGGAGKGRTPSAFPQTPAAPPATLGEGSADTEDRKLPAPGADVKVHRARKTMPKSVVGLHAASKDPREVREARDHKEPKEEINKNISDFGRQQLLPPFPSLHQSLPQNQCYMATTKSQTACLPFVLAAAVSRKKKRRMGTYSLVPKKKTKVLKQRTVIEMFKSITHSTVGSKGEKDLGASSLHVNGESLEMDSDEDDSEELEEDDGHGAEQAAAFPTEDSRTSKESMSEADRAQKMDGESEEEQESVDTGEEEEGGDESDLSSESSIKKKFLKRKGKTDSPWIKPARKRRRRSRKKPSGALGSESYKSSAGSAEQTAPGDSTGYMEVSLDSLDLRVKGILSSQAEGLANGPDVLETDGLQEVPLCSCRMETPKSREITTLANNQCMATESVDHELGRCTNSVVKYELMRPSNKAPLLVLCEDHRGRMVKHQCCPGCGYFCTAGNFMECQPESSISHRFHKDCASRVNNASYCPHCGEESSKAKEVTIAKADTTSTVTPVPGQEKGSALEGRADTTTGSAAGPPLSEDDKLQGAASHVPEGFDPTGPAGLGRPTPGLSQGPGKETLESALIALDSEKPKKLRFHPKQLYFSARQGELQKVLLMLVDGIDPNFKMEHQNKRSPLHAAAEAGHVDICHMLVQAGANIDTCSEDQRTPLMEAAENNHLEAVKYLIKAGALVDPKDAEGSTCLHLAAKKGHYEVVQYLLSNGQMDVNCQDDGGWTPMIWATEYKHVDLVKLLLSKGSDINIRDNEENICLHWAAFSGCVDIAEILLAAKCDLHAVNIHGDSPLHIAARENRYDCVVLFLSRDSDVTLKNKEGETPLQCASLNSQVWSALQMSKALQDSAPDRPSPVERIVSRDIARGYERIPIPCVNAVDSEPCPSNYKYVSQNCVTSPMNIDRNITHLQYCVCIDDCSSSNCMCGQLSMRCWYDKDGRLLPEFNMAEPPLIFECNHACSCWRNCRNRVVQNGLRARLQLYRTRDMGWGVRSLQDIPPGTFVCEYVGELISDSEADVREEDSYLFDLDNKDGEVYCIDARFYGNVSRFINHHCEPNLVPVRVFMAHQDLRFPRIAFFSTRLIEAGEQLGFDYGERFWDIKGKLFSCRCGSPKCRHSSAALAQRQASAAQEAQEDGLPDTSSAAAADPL

IC50 | Structure (SMILES)
> 10 µM | CNc1cc(C)nc(Nc2ccc(OC)c(CNCCN3CC(C)C3)c2)n1 [Compound 35]
1 to 10 µM | CNc1cc(C)nc(Nc2ccc(Cl)c(C(=O)Nc3cccnn3)c2)n1 [Compound 5]
1 to 10 µM | CNc1cc(C)nc(Nc2ccc(C)c(C(=O)Nc3c[nH]cn3)c2)n1 [Compound 37]
0.1 to 1 µM | CCCCNC(=O)c1cc(Nc2nc(C)cc(NC)n2)ccc1Cl [Compound 9]
1 to 10 µM | CNc1cc(C)nc(Nc2ccc(C)c(C(=O)Nc3cc(C#N)ccn3)c2)n1 [Compound 30]

same assay, conditions: Table 3A; read-out: EHMT1 (IC50 μM)

Structure (SMILES) | IC50
CNCc1cn(-c2c(Cl)ccc(Nc3nc(C)cc(NC)n3)c2Cl)nn1 [Compound A13, N2-(2,4-dichloro-3-(4-((methylamino)methyl)-1H-1,2,3-triazol-1-yl)phenyl)-N4,6-dimethylpyrimidine-2,4-diamine] | < 0.01 µM
CNCc1cc(-c2c(OC)ccc(Nc3nc(C)cc(NC)n3)c2F)no1 [Compound A14, N2-(2-fluoro-4-methoxy-3-[5-[(methylamino)methyl]-1,2-oxazol-3-yl]phenyl)-N4,6-dimethylpyrimidine-2,4-diamine] | < 0.01 µM
